Source: patent publication US20080200475A1 (Pfizer Inc., priority 2005, published 2008)
Where “and” joins values, the source holds several entries; their conditions need not be identical. Identical values can stand only once.

Target: T1, Human P2Y12 (Homo sapiens, UniProt Q9H244)
T1 construct: expressed in transfected cells; host or cells: HEK cells (membrane preparation)
Assay: [^33P]-2MeS-ADP Binding to Recombinant Human P2Y12 Membranes (Assay 3)
Conditions: for inhibition at 10 µM / % Inhibition, [^33P]-2MeS-ADP Binding to Recombinant Human P2Y12 Membranes (Assay 3): highest concentration tested 10 μM; for IC50 / Ki: membranes of HEK cells transfected with P2Y12, competition with ^33P 2MeS-ADP, multiple lines = multiple runs
Procedure: 3. Human P2Y12 Recombinant Cell Membrane Binding Assay with ^33P 2MeS-ADP.
The ability of a test compound to bind to the P2Y12 receptor was evaluated in a recombinant cell membrane binding assay. In this competitive binding assay, the test compound competed against a radiolabelled agonist for binding to the P2Y12 receptor, expressed on the cell membrane. Inhibition of binding of the labeled material was measured and correlated to the amount and potency of the test compound. Data from this assay are presented in Table F. This binding assay is a modification of the procedure in Takasaki, J. et. al, Mol. Pharmacol., 2001, Vol. 60, pg. 432.
HEK cells were transfected with the pDONR201P2Y12 vector and cultured in MEM with GlutaMAX I, Earle's salts, 25 mM HEPES (Gibco #42360-032) containing 10% dialyzed FBS (Gibco #26400-044), 100 μM nonessential amino acids (Gibco #11140-050), 1 mM sodium pyruvate (Gibco #11360-070), 0.05% geneticin (Gibco #10131-027), 3 μg/mL blasticidin (Fluka brand from Sigma #15205), and 0.5 μg/mL puromycin (Sigma #P-8833).
Confluent cells were washed once with cold DPBS (Gibco #14190-136). Fresh DPBS was added and the cells were scraped and centrifuged at 500×g for 5 minutes at 4° C. The cell pellets were resuspended in TEE buffer (25 mM Tris, 5 mM EDTA, 5 mM EGTA) containing 1 protease inhibitor cocktail tablet (Roche #1 873 580) per 50 mL (called TEE+Complete) and can be flash frozen at this point.
In one embodiment, frozen cell pellets were used to prepare the membranes. In that embodiment, the frozen cell pellets were thawed on ice. In another embodiment, cell pellets may be used without flash freezing before moving on to the next step.
Cell pellets were resuspended in TEE buffer+Complete and homogenized in a glass dounce for 12 strokes. The cell suspension was centrifuged at 500×g for 5 minutes at 4° C. The supernatant was saved and centrifuged at 20,000×g for 20 minutes at 4° C. This supernatant was discarded and the cell pellet resuspended in TEE buffer+Complete and homogenized in a glass dounce for 12 strokes. This suspension was centrifuged at 20,000×g for 20 minutes at 4° C. and the supernatant discarded. The pellet was resuspended in assay buffer (50 mM Tris, 100 mM NaCl, 1 mM EDTA) containing one protease inhibitor cocktail tablet per 50 mL, and can be flash frozen as 1 mL aliquots at this point.
[…] A 1 mM DMSO intermediate stock was made in a dilution plate and from this the seven dilutions were made to 5× the final concentration in assay buffer containing 0.02% BSA.
To a polypropylene assay plate (Costar #3365) the following were added: a) 30 μL of assay buffer containing one protease inhibitor cocktail tablet per 50 mL; b) 30 μL of 1 nM ^33P 2MeS-ADP made in assay buffer containing 0.02% BSA and 12.5 mg/mL ascorbic acid; 30 μL of cold 1.5 μM 2MeS-ADP for the positive control wells, or assay buffer containing 0.02% BSA and 12.5 mg/mL ascorbic acid for the negative control wells, or 5× drug dilution; and 60 μL of 1 ug/well membranes.
The plates were incubated at room temperature for 1 hour. The reaction was stopped using a cell harvester to transfer the reaction mixture onto GF/B UniFilter plates (Perkin Elmer #6005177), and washed three times with wash buffer (50 mM Tris), filtering between each wash. The filter plates were dried for approximately 20 minutes in an oven at 50° C. Back seals were adhered to the filter plates and 25 uL of Microscint 20 scintillation fluid (Perkin Elmer #6013621) were added. The filter plates were sealed, shaken for 30 minutes, and counted on a Top Count. Data were analyzed using a four-parameter curve fit with a fixed minimum and maximum experimentally defined as the average positive and negative controls on each plate, and with a hill slope equal to one. […]

T1 sequence (Q9H244 whole entry): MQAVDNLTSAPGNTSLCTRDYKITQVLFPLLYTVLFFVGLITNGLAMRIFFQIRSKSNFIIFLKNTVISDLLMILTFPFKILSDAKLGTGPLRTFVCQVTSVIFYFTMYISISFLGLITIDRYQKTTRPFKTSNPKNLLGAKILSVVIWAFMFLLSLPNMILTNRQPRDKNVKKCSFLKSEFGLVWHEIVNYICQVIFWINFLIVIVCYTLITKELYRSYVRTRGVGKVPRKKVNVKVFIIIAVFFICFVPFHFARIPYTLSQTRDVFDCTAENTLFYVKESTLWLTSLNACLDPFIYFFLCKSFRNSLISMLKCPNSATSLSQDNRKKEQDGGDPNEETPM

## CCc1cc2c(N3CCN(C(=O)c4ccc(-c5ccccc5)cc4)CC3)nc(NC(=O)[C@H]3CCCN3)nc2s1 [Example 40, (R)-Pyrrolidine-2-carboxylic acid{4-[4-(biphenyl-4-carbonyl)piperazin-1-yl]-6-ethylthieno[2,3-d]pyrimidin-2-yl}amide]
  inhibition at 10 µM: 75.6%
  IC50: 0.403 µM
  Ki: 0.227 µM

## CCc1cc2c(N3CCN(C(=O)c4ccc(-c5ccccc5)cc4)CC3)nc(NC(=O)CN)nc2s1 [Example 41, 2-Amino-N-{4-[4-(biphenyl-4-carbonyl)piperazin-1-yl]-6-ethylthieno[2,3-d]pyrimidin-2-yl}acetamide]
  inhibition at 10 µM: 85%
  IC50: 0.156 µM
  Ki: 0.085 µM

## CCOC(=O)CCNC(=O)Nc1nc(N2CCN(C(=O)CC(F)(F)F)CC2)c2cc(CC)sc2n1 [Example 46, Ethyl N-[({6-ethyl-4-[4-(3,3,3-trifluoropropanoyl)piperazin-1-yl]thieno[2,3-d]pyrimidin-2-yl}amino)carbonyl]-beta-alaninate]
  % Inhibition, [^33P]-2MeS-ADP Binding to Recombinant Human P2Y12 Membranes (Assay 3): 46.8% and 71.7%
  IC50: 6.88 µM and 4.16 µM
  Ki: 3.82 µM and 2.3 µM

## CCc1cc2c(N3CCN(C(=O)CC(F)(F)F)CC3)nc(NC(=O)NCCC(=O)O)nc2s1 [Example 49, N-[({6-Ethyl-4-[4-(3,3,3-trifluoropropanoyl)piperazin-1-yl]thieno[2,3-d]pyrimidin-2-yl}amino)carbonyl]-beta-alanine]
  % Inhibition, [^33P]-2MeS-ADP Binding to Recombinant Human P2Y12 Membranes (Assay 3): 94.4% and 92%
  inhibition at 10 µM: 88.9%
  IC50: 0.449 µM and 0.308 µM and 0.254 µM
  Ki: 0.234 µM and 0.168 µM and 0.14 µM
